Columns and labels:
A. fumigatus ATCC 204305 = assay: Broth microdilution antifungal susceptibility, NCCLS M38-A; type: cell-based, Aspergillus fumigatus; settings: minimal concentration inhibiting >95% growth; average of at least two assays (except I-l and I-x)
A. flavus ATCC 204304 = assay: as above; type: cell-based, Aspergillus flavus; settings: minimal concentration inhibiting >95% growth; average of at least two assays (except I-l and I-x)

| Molecule | MIC0 A. fumigatus ATCC 204305 (A. fumigatus ATCC 204305) [µg/mL] | MIC0 A. flavus ATCC 204304 (A. flavus ATCC 204304) [µg/mL] |
| --- | --- | --- |
| 20,21-dihydro ambruticin VS4 [IV-e] | 2.5 | 1 |
| CC[C@H]1O[C@@H](/C(C)=C/[C@H](C)/C=C/[C@H]2[C@@H](C)[C@@H]2/C=C/[C@@H]2O[C@H](CC(=O)O)C[C@H](N(C)C)[C@H]2O)CC=C1C [Ambruticin VS-3, (5S,6R)-5-(dimethylamino)-6-hydroxypolyangioic acid, reference compound] | 0.44 | 0.64 |
| CC[C@H]1O[C@@H](/C(C)=C/[C@H](C)/C=C/[C@H]2[C@@H](C)[C@@H]2/C=C/[C@@H]2O[C@H](CC(=O)O)C[C@H](N)[C@H]2O)CC=C1C [Ambruticin VS-5, (5S,6R)-5-amino-6-hydroxypolyangioic acid, reference compound] | 1.64 | 1.09 |
| CC[C@H]1O[C@@H](/C(C)=C/[C@H](C)/C=C/[C@H]2[C@@H](C)[C@@H]2/C=C/[C@@H]2O[C@H](CC(=O)O)C[C@H](NC(=O)OC)[C@H]2O)CC=C1C [I-bb, (5S,6R)-5-methoxycarbonylamino-6-hydroxypolyangioic acid] | 16 | 32 |
| C=CCNC(=O)O[C@H]1[C@H](/C=C/[C@H]2[C@H](C)[C@@H]2/C=C/[C@@H](C)/C=C(\C)[C@H]2CC=C(C)[C@@H](CC)O2)O[C@H](CC(=O)O)C[C@@H]1N(C)C(=O)NCC=C [I-cc, (5S,6R)-5-(3-allyl-1-methylureido)-6-(allylcarbamoyl)polyangioic acid] | >32 | >32 |
| CC[C@H]1O[C@@H](/C(C)=C/[C@H](C)/C=C/[C@H]2[C@@H](C)[C@@H]2/C=C/[C@@H]2O[C@H](CC(=O)O)C[C@H](N(C)C(=O)NCc3ccccc3)[C@H]2OC(=O)NCc2ccccc2)CC=C1C [I-dd, (5S,6R)-5-(3-benzyl-1-methylureido)-6-(benzylcarbamoyl)polyangioic acid] | >32 | >32 |
| CC[C@H]1O[C@@H](/C(C)=C/[C@H](C)/C=C/[C@H]2[C@@H](C)[C@@H]2/C=C/[C@@H]2O[C@H](CC(=O)O)C[C@H](N(CC3CC3)CC3CC3)[C@H]2O)CC=C1C [I-e, (5S,6R)-5-[di(cyclopropylmethyl)amino]-6-hydroxypolyangioic acid] | 4.0 | 3.33 |
| CC[C@H]1O[C@@H](/C(C)=C/[C@H](C)/C=C/[C@H]2[C@@H](C)[C@@H]2/C=C/[C@@H]2O[C@H](CC(=O)O)C[C@H](N(C)Cc3ccc4ccccc4c3)[C@H]2O)CC=C1C [I-f, (5S,6R)-5-(N-(2-naphthyl)methyl-methylamino)-6-hydroxypolyangioic acid] | 8.0 | 4.67 |
| CC[C@H]1O[C@@H](/C(C)=C/[C@H](C)/C=C/[C@H]2[C@@H](C)[C@@H]2/C=C/[C@@H]2O[C@H](CC(=O)O)C[C@H](NC(=O)C(F)(F)F)[C@H]2O)CC=C1C [I-fff, (5S,6R)-5-trifluroacetamido-6-hydroxypolyangioic acid] | 3 | 2 |
| CC[C@H]1O[C@@H](/C(C)=C/[C@H](C)/C=C/[C@H]2[C@@H](C)[C@@H]2/C=C/[C@@H]2O[C@H](CC(=O)O)C[C@H](N(Cc3c[nH]cn3)Cc3c[nH]cn3)[C@H]2O)CC=C1C [I-g, (5S,6R)-5-{di [(4-imidazolyl)methyl]amino}-6-hydroxypolyangioic acid] | 22.67 | 24.0 |
| CC[C@H]1O[C@@H](/C(C)=C/[C@H](C)/C=C/[C@H]2[C@@H](C)[C@@H]2/C=C/[C@@H]2O[C@H](CC(=O)OC)C[C@H](N(C)C(=O)OCC(C)C)[C@H]2O)CC=C1C [I-gg] | >32 | >32 |
| CC[C@H]1O[C@@H](/C(C)=C/[C@H](C)/C=C/[C@H]2[C@@H](C)[C@@H]2/C=C/[C@@H]2O[C@H](CC(=O)O)C[C@H](NCC(F)F)[C@H]2O)CC=C1C [I-ggg, (5S,6R)-5-(2,2-difluoroethyl)amino-6-hydroxypolyangioic acid] | 4 | 8 |
| CC[C@H]1O[C@@H](/C(C)=C/[C@H](C)/C=C/[C@H]2[C@@H](C)[C@@H]2/C=C/[C@@H]2O[C@H](CC(=O)O)C[C@H](NCc3ccc(OC)c(OC)c3)[C@H]2O)CC=C1C [I-hhh, (5S,6R)-5-(3,4-dimethoxybenzyl)amino-6-hydroxypolyangioic acid] | >32 | >32 |
| CC[C@H]1O[C@@H](/C(C)=C/[C@H](C)/C=C/[C@H]2[C@@H](C)[C@@H]2/C=C/[C@@H]2O[C@H](CCO)C[C@H](NCC(F)(F)F)[C@H]2O)CC=C1C [I-iii, (5S,6R)-5-(2,2,2-trifluroethyl)aminopolyangi-1,6-diol] | 16 | 16 |
| CC[C@H]1O[C@@H](/C(C)=C/[C@H](C)/C=C/[C@H]2[C@@H](C)[C@@H]2/C=C/[C@@H]2O[C@H](CC(=O)O)C[C@H](NC(C)=O)[C@H]2O)CC=C1C [I-j, (5S,6R)-5-acetamido-6-hydroxypolyangioic acid] | 32 | >32 |
| CC[C@H]1O[C@@H](/C(C)=C/[C@H](C)/C=C/[C@H]2[C@@H](C)[C@@H]2/C=C/[C@@H]2O[C@H](CCO)C[C@H](NCC(F)F)[C@H]2O)CC=C1C [I-jjj, (5S,6R)-5-(2,2-difluroethyl)aminopolyangi-1,6-diol] | 8 | 8 |
| CC[C@H]1O[C@@H](/C(C)=C/[C@H](C)/C=C/[C@H]2[C@@H](C)[C@@H]2/C=C/[C@@H]2O[C@H](CC(=O)OC)C[C@H](N(C)C(C)=O)[C@H]2O)CC=C1C [I-k, methyl (5S,6R)-5-[N-methyl(acetamido)]-6-hydroxypolyangioate] | >32 | >32 |
| CCC(=O)N(C)[C@H]1C[C@@H](CC(=O)O)O[C@@H](/C=C/[C@H]2[C@H](C)[C@@H]2/C=C/[C@@H](C)/C=C(\C)[C@H]2CC=C(C)[C@@H](CC)O2)[C@@H]1O [I-m, (5S,6R)-5-[N-methyl(propionamido)]-6-hydroxypolyangioic acid] | >32 | >32 |
| CC[C@H]1O[C@@H](/C(C)=C/[C@H](C)/C=C/[C@H]2[C@@H](C)[C@@H]2/C=C/[C@@H]2O[C@H](CC(=O)O)C[C@H](N(C)C(=O)OC)[C@H]2O)CC=C1C [I-o] | 16 | 32 |
| CC[C@H]1O[C@@H](/C(C)=C/[C@H](C)/C=C/[C@H]2[C@@H](C)[C@@H]2/C=C/[C@@H]2O[C@H](CC(=O)O)C[C@H](N(C)C(=O)NCc3ccccc3)[C@H]2O)CC=C1C [I-p, (5S,6R)-5-(3-benzyl-1-methylureido)-6-hydroxypolyangioic acid] | 32 | 32 |
| CC[C@H]1O[C@@H](/C(C)=C/[C@H](C)/C=C/[C@H]2[C@@H](C)[C@@H]2/C=C/[C@@H]2O[C@H](CC(=O)NCCN(C)C)C[C@H](N(C)C)[C@H]2O)CC=C1C [I-qq, (5S,6R)-5-dimethylamino-6-hydroxy-N-[(2-dimethylamino)ethyl]polyangiamide] | 32 | >32 |
| CC[C@H]1O[C@@H](/C(C)=C/[C@H](C)/C=C/[C@H]2[C@@H](C)[C@@H]2/C=C/[C@@H]2O[C@H](CC(=O)O)C[C@H](N(C)C(=O)OCC(C)C)[C@H]2O)CC=C1C [I-r, (5S,6R)-5-[N-methyl(isobutoxycarbonylamino)]-6-hydroxypolyangioic acid] | >32 | >32 |
| CC[C@H]1O[C@@H](/C(C)=C/[C@H](C)/C=C/[C@H]2[C@@H](C)[C@@H]2/C=C/[C@@H]2O[C@H](CC(=O)NCCO)C[C@H](N(C)C)[C@H]2O)CC=C1C [I-rr, (5S,6R)-5-dimethylamino-6-hydroxy-N-(2-hydroxyethyl)polyangiamide] | 4 | 2 |
| CC[C@H]1O[C@@H](/C(C)=C/[C@H](C)/C=C/[C@H]2[C@@H](C)[C@@H]2/C=C/[C@@H]2O[C@H](CC(=O)O)C[C@H](NC(=O)NCc3ccccc3)[C@H]2O)CC=C1C [I-s, (5S,6R)-5-(3-benzylureido)-6-hydroxypolyangioic acid] | 16 | 32 |
| CC[C@H]1O[C@@H](/C(C)=C/[C@H](C)/C=C/[C@H]2[C@@H](C)[C@@H]2/C=C/[C@@H]2O[C@H](CC(=O)NCC(=O)OC)C[C@H](N(C)C)[C@H]2O)CC=C1C [I-ss, (5S,6R)-5-dimethylamino-6-hydroxy-N-(methoxycarbonylmethyl)polyangiamide] | 4 | 8 |
| CC[C@H]1O[C@@H](/C(C)=C/[C@H](C)/C=C/[C@H]2[C@@H](C)[C@@H]2/C=C/[C@@H]2O[C@H](CC(=O)N(C)OC)C[C@H](N(C)C)[C@H]2O)CC=C1C [I-tt, (5S,6R)-5-dimethylamino-6-hydroxy-N-methoxy-N-methylpolyangiamide] | 8 | 4 |
| CC[C@H]1O[C@@H](/C(C)=C/[C@H](C)/C=C/[C@H]2[C@@H](C)[C@@H]2/C=C/[C@@H]2O[C@H](CC(=O)O)C[C@H](N(C)Cc3nccs3)[C@H]2O)CC=C1C [I-x, (5S,6R)-5-(N-(2-thiazolyl)methyl-methylamino)-6-hydroxypolyangioic acid] | 2 | 4 |
| CC[C@H]1O[C@@H](/C(C)=C/[C@H](C)/C=C/[C@H]2[C@@H](C)[C@@H]2/C=C/[C@@H]2O[C@H](CC=NO)C[C@H](NC)[C@H]2O)CC=C1C [I-zz, (5S,6R)-5-methylamino-6-hydroxypolyangial oxime] | 12 | 8 |
